Measured values reported in PubChem BioAssay (NCI).
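Where inhibition never reached the appropriate level, the endpoint shown equals the highest concentration tested. Otherwise, values were interpolated linearly from a five-concentration, 48-hour dose response in 96-well plates. Definition used: TGI = concentration required for complete inhibition of growth.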

Columns and labels:
Assay in all cases: NCI-60 cell line screen, 48 h
OVCAR-3 ovarian = system: OVCAR-3 ovarian
K-562 leukemia = system: K-562 leukemia
MDA-MB-435 = system: MDA-MB-435
IGROV1 ovarian = system: IGROV1 ovarian
SW-620 colon = system: SW-620 colon
BT-549 breast = system: BT-549 breast
MDA-N = system: MDA-N
M14 melanoma = system: M14 melanoma
DU-145 prostate = system: DU-145 prostate
MALME-3M melanoma = system: MALME-3M melanoma

SMILES: Cc1ccsc1C(=S)Nc1ccc(Cl)c(C(=O)OC(C(C)C)C(C)C)c1
- TGI (OVCAR-3 ovarian): 33.5 µM
- TGI (K-562 leukemia): > 100 µM
- TGI (MDA-MB-435): 63.1 µM
- TGI (IGROV1 ovarian): > 100 µM
- TGI (SW-620 colon): 98.8 µM
- TGI (BT-549 breast): 61.4 µM
- TGI (MDA-N): > 100 µM
- TGI (M14 melanoma): > 100 µM
- TGI (DU-145 prostate): > 100 µM

SMILES: COP(=O)(CC(=O)C1OC(OCc2ccccc2)C(OCc2ccccc2)C(OCc2ccccc2)C1OCc1ccccc1)OC (configuration not stated)
- TGI (OVCAR-3 ovarian): > 100 µM
- TGI (K-562 leukemia): > 100 µM
- TGI (MDA-MB-435): 27.9 µM
- TGI (IGROV1 ovarian): > 100 µM
- TGI (SW-620 colon): > 100 µM
- TGI (BT-549 breast): 71.2 µM
- TGI (MALME-3M melanoma): 94.5 µM
- TGI (MDA-N): 20.3 µM
- TGI (M14 melanoma): 70 µM
- TGI (DU-145 prostate): > 100 µM

SMILES: COc1cc(OC)c(C2c3cc4c(cc3OC(N3CCOCC3)C2C)OCO4)c(OC)c1 (configuration not stated)
- TGI (OVCAR-3 ovarian): > 100 µM
- TGI (K-562 leukemia): > 100 µM
- TGI (MDA-MB-435): > 100 µM
- TGI (IGROV1 ovarian): > 100 µM
- TGI (SW-620 colon): > 100 µM
- TGI (MDA-N): > 100 µM
- TGI (M14 melanoma): > 100 µM
- TGI (DU-145 prostate): > 100 µM

SMILES: COc1cc2c(cc1OCCCOc1cc3c(cc1OC)C(=O)N1CCC[C@H]1CN3)N=C[C@@H]1CCCN1C2=O
- TGI (OVCAR-3 ovarian): 0.342 µM
- TGI (K-562 leukemia): 0.483 µM
- TGI (MDA-MB-435): 0.29 µM
- TGI (IGROV1 ovarian): 0.451 µM
- TGI (SW-620 colon): > 32.4 µM
- TGI (BT-549 breast): 10.3 µM
- TGI (MALME-3M melanoma): 0.268 µM
- TGI (M14 melanoma): 0.24 µM
- TGI (DU-145 prostate): > 37.7 µM

SMILES: CN1c2ccccc2C(=O)NC12CCN(CC1COc3ccccc3O1)CC2 (configuration not stated)
- TGI (K-562 leukemia): > 100 µM
- TGI (MDA-MB-435): > 100 µM
- TGI (IGROV1 ovarian): > 100 µM
- TGI (SW-620 colon): > 100 µM
- TGI (MALME-3M melanoma): > 100 µM
- TGI (M14 melanoma): > 100 µM
- TGI (DU-145 prostate): > 100 µM

SMILES: O=C(c1ccccc1)[C@H]1Nc2cnccc2C2c3ccccc3CC21 (some centres not stated)
- TGI (OVCAR-3 ovarian): 29.7 µM
- TGI (K-562 leukemia): 15.6 µM
- TGI (IGROV1 ovarian): > 58.6 µM
- TGI (SW-620 colon): 47.3 µM
- TGI (MALME-3M melanoma): 27.4 µM
- TGI (M14 melanoma): 19.9 µM

SMILES: FC(F)=C(c1ccc(-c2ccc(Cl)cc2)cc1)C(F)(F)F
- TGI (K-562 leukemia): 71.9 µM
- TGI (MDA-MB-435): 49.4 µM
- TGI (IGROV1 ovarian): 33.9 µM
- TGI (SW-620 colon): 40.3 µM
- TGI (BT-549 breast): 39.3 µM
- TGI (MALME-3M melanoma): 31.3 µM
- TGI (M14 melanoma): 36.1 µM
- TGI (DU-145 prostate): 34.6 µM

SMILES: CCN(C(=O)N[C@H](C(=O)N[C@@H](C)C(=O)OC)C(C)C)c1ccccc1
- TGI (OVCAR-3 ovarian): > 100 µM
- TGI (K-562 leukemia): > 100 µM
- TGI (MDA-MB-435): 52.2 µM
- TGI (IGROV1 ovarian): > 100 µM
- TGI (SW-620 colon): > 100 µM
- TGI (BT-549 breast): > 100 µM
- TGI (MALME-3M melanoma): 55.9 µM
- TGI (MDA-N): > 100 µM
- TGI (M14 melanoma): > 100 µM
- TGI (DU-145 prostate): > 100 µM

SMILES: Cc1ccc2c(c1)C(=O)/C(=C\c1ccc(Cl)cc1)CCS2(=O)=O
- TGI (OVCAR-3 ovarian): 19.5 µM
- TGI (K-562 leukemia): 3.32 µM
- TGI (MDA-MB-435): 23.3 µM
- TGI (IGROV1 ovarian): 7.56 µM
- TGI (SW-620 colon): 12.1 µM
- TGI (BT-549 breast): 12.7 µM
- TGI (MALME-3M melanoma): 6.42 µM
- TGI (MDA-N): > 36.5 µM
- TGI (M14 melanoma): > 34.4 µM
- TGI (DU-145 prostate): 8.15 µM

SMILES: CCOP(=O)(OCC)c1cc(-c2ccccc2)ccc1N
- TGI (OVCAR-3 ovarian): > 100 µM
- TGI (K-562 leukemia): > 100 µM
- TGI (MDA-MB-435): > 100 µM
- TGI (IGROV1 ovarian): > 100 µM
- TGI (SW-620 colon): > 100 µM
- TGI (BT-549 breast): > 100 µM
- TGI (MALME-3M melanoma): > 100 µM
- TGI (MDA-N): > 100 µM
- TGI (M14 melanoma): > 100 µM
- TGI (DU-145 prostate): > 100 µM

SMILES: O=S1(=O)c2ccccc2NC(=S)N1c1ccccc1
- TGI (OVCAR-3 ovarian): > 100 µM
- TGI (K-562 leukemia): > 100 µM
- TGI (MDA-MB-435): > 100 µM
- TGI (IGROV1 ovarian): > 100 µM
- TGI (SW-620 colon): > 100 µM
- TGI (BT-549 breast): 99.2 µM
- TGI (MALME-3M melanoma): > 100 µM
- TGI (MDA-N): > 80.9 µM
- TGI (M14 melanoma): > 100 µM
- TGI (DU-145 prostate): > 100 µM

SMILES: C=C1CC2C(=O)N(c3ccccc3)C(=O)C2CC1n1[nH]c(=O)n(Cc2ccccc2)c1=O (configuration not stated)
- TGI (OVCAR-3 ovarian): > 100 µM
- TGI (K-562 leukemia): > 100 µM
- TGI (IGROV1 ovarian): > 100 µM
- TGI (SW-620 colon): > 100 µM
- TGI (MALME-3M melanoma): > 100 µM
- TGI (M14 melanoma): > 100 µM

SMILES: COC(=O)C(=O)C(C(=O)C(=O)Nc1cc([N+](=O)[O-])ccc1C#N)c1nc2ccccc2[nH]c1=O (configuration not stated)
- TGI (OVCAR-3 ovarian): > 100 µM
- TGI (IGROV1 ovarian): > 100 µM
- TGI (SW-620 colon): > 100 µM
- TGI (MALME-3M melanoma): > 100 µM
- TGI (M14 melanoma): > 100 µM

SMILES: CC1=NC(C)(C)N(O)C1(C)C
- TGI (OVCAR-3 ovarian): > 100 µM
- TGI (K-562 leukemia): > 100 µM
- TGI (MDA-MB-435): > 100 µM
- TGI (IGROV1 ovarian): > 100 µM
- TGI (SW-620 colon): > 100 µM
- TGI (MALME-3M melanoma): > 100 µM
- TGI (MDA-N): > 100 µM
- TGI (M14 melanoma): > 100 µM
- TGI (DU-145 prostate): > 100 µM

SMILES: CC1(C)OC(=O)C=C([O-])O1.CC1(C)OC(=O)C=C([O-])O1.O=c1c(O)c(-c2ccc([O-])cc2[O-])oc2cc(O)cc(O)c12.[Ti+4]
- TGI (OVCAR-3 ovarian): > 100 µM
- TGI (K-562 leukemia): > 100 µM
- TGI (IGROV1 ovarian): > 100 µM
- TGI (SW-620 colon): > 100 µM
- TGI (MALME-3M melanoma): > 100 µM
- TGI (M14 melanoma): > 100 µM

SMILES: CCOC(=O)c1c(NC(=S)Nc2ccc(C)cc2)sc2c1CCN(C)C2
- TGI (OVCAR-3 ovarian): > 100 µM
- TGI (K-562 leukemia): > 100 µM
- TGI (IGROV1 ovarian): > 100 µM
- TGI (BT-549 breast): > 100 µM
- TGI (MDA-N): > 100 µM
- TGI (M14 melanoma): > 100 µM
- TGI (DU-145 prostate): > 100 µM

SMILES: COC(=O)/C=C\S/C(=C(/c1ccccc1)n1ccc(C(=O)OC)n1)c1ccccc1
- TGI (K-562 leukemia): > 100 µM
- TGI (MDA-MB-435): > 100 µM
- TGI (IGROV1 ovarian): > 100 µM
- TGI (SW-620 colon): > 100 µM
- TGI (BT-549 breast): > 100 µM
- TGI (MALME-3M melanoma): 43.9 µM
- TGI (M14 melanoma): > 100 µM

SMILES: COC(=O)[C@H]1C=C[C@H](OC2OC(COC(C)=O)C(OC(C)=O)C(OC(C)=O)C2OC(C)=O)n2c(=O)n(-c3ccccc3)c(=O)n21 (some centres not stated)
- TGI (OVCAR-3 ovarian): 11.3 µM
- TGI (K-562 leukemia): 4.91 µM
- TGI (MDA-MB-435): 16.6 µM
- TGI (IGROV1 ovarian): 18.4 µM
- TGI (SW-620 colon): 5.68 µM
- TGI (BT-549 breast): 9.14 µM
- TGI (MDA-N): 18.5 µM
- TGI (M14 melanoma): 9.64 µM
- TGI (DU-145 prostate): 21.1 µM

SMILES: COc1cc(/C=C/c2cc(=O)cc(/C=C/c3ccc(O)c(OC)c3)o2)ccc1O
- TGI (OVCAR-3 ovarian): > 100 µM
- TGI (K-562 leukemia): > 100 µM
- TGI (MDA-MB-435): > 100 µM
- TGI (IGROV1 ovarian): > 100 µM
- TGI (SW-620 colon): > 100 µM
- TGI (BT-549 breast): > 100 µM
- TGI (MALME-3M melanoma): > 100 µM
- TGI (M14 melanoma): > 100 µM
- TGI (DU-145 prostate): > 100 µM

SMILES: CCNC(=S)N/N=C/c1ccccn1
- TGI (K-562 leukemia): > 100 µM
- TGI (MDA-MB-435): > 100 µM
- TGI (IGROV1 ovarian): > 100 µM
- TGI (SW-620 colon): > 100 µM
- TGI (BT-549 breast): 87.6 µM
- TGI (MALME-3M melanoma): > 100 µM
- TGI (MDA-N): > 100 µM
- TGI (M14 melanoma): 32.7 µM
- TGI (DU-145 prostate): 58.5 µM

SMILES: O=c1cc(-c2ccccc2F)[nH]c2cc3c(cc12)OCO3
- TGI (OVCAR-3 ovarian): 0.779 µM
- TGI (K-562 leukemia): > 15.7 µM
- TGI (MDA-MB-435): 0.0217 µM
- TGI (IGROV1 ovarian): > 100 µM
- TGI (SW-620 colon): > 100 µM
- TGI (MALME-3M melanoma): > 47.3 µM
- TGI (MDA-N): 0.0396 µM
- TGI (M14 melanoma): 5.1 µM
- TGI (DU-145 prostate): 0.48 µM

SMILES: CCCC[C@@H]1CCN2C[C@@H](O)[C@@H](O)[C@H]2[C@@H]1O
- TGI (OVCAR-3 ovarian): > 100 µM
- TGI (K-562 leukemia): > 100 µM
- TGI (MDA-MB-435): > 100 µM
- TGI (IGROV1 ovarian): > 100 µM
- TGI (SW-620 colon): > 100 µM
- TGI (BT-549 breast): > 100 µM
- TGI (MALME-3M melanoma): > 100 µM
- TGI (M14 melanoma): > 100 µM

SMILES: N#CC(C#N)=Cc1cccc(Oc2ccccc2)c1
- TGI (OVCAR-3 ovarian): 72 µM
- TGI (K-562 leukemia): > 95.4 µM
- TGI (IGROV1 ovarian): 67 µM
- TGI (SW-620 colon): 58.7 µM
- TGI (MALME-3M melanoma): 43.4 µM
- TGI (M14 melanoma): 40.4 µM
